In data set [1] the test system is HeLa cells. As to the kind of experiment: Cell viability by trypan blue dye exclusion assay. Format: cell-based. The note with it: FIG. 1A. How it is done: Cell culture: HeLa cells were cultured in Dulbecco's modified Eagle's medium supplemented with 10% fetal bovine serum and 50 μg/ml kanamycin at 37° C. in 5% CO2 in air.
Assay for apoptotic processes: Cell viability was determined by dye exclusion assay using 0.1% trypan blue. DNA fragmentation was analyzed as described previously (Kawauchi, K. et al. (1997) Biochem. Biophys. Res. Commun. 237, 543-547). In the caspase-3 assay, cells were disrupted by freeze-thaw in an extraction buffer (50 mM Tris-HCl, pH7.4, 1 mM EGTA, 5 mM EDTA, 5 mM MgCl2, 1 mM APMSF, 10 μg/ml pepstatin, 10 μg/ml leupeptin, and 1 mM DTT). Then the suspension was centrifuged at 15,000 rpm for 20 min, and the supernatants obtained were incubated at 37° C. for 60 min in a reaction buffer (50 mM Tris-HCl, pH7.4, 1 mM EDTA, 10 mM EGTA) with 20 μM of the fluorogenic substrate DEVD-AFC (Peptide Institute, Inc., Japan). Cleavage of the substrates was quantified by measuring the fluorescence of 7-amino-4-trifluomethyl coumarin released using a spectrofluorometer (Shimadzu RF5000) with excitation at 380 mn and emission at 460 nm.

The subject of data set [2] is NF-κB. As to the kind of experiment: NF-κB luciferase gene reporter assay (pIG3Luc) in HeLa cells. The format is cell-based. The text has this: The plasmids, pRKF-IKKα and pRKHA-IKKβ have been described previously (Oka, S., Kamata, H., Kamata, K., Yagisawa, H. and Hirata, H. (2000) FEBS Lett., 472, 196-202). pRKF-IKKαEE and pRK-HA-IKKβEE encode constitutively active mutants of IKKα, in which 176 and 180 serine residues in an activation loop are replaced by glutamic acid residues, and IKKβ, in, which 177 and 181 serine residues are replaced by glutamic acid residues, respectively. A reporter plasmid pIG3Luc for NF-κB encodes triple NF-κB binding site sequences (AGCTTCAGAGGGGACTRANSCRIPTIONCCGAGAGG) (SEQ ID NO: 2) followed by the luciferase gene. A control plasmid, pBKRLuc, was obtained from Toyobo (Toyo B-Net Co., Japan). pcDNAF-MEKK1, pRKF-p65, pEFBOSHA-Rac1-DA, and pEFBOSHA-Cdc42-DA, are the expression plasmids for MEKK1, the NF-κB subunit p65, constitutively active Rac1 and Cdc42, respectively.
(§1) Luciferase gene reporter assay and Kinase assays of IKK: HeLa cells were transfected with the reporter plasmids described above using Lipofectin (GIBCO BRL). After 24-48 hr, the luciferase activity was determined using the Luciferase Assay System (Promega). The kinase activity of IKKα and IKKβ were analyzed by immune complex kinase assay as described previously (Oka, S., Kamata, H., Kamata, K., Yagisawa, H. and Hirata, H. (2000) FEBS Lett. 472, 196-202). The substrates was using GST-IκBα(1-55) or GST-p65(399-551).
The gene expression induction by NF-κB activation plays the most important role among “life” signals by TNFα. Therefore, the NF-κB reporter gene was introduced into the cells to analyze the effect of cPrG-HCl by luciferase assay.
NF-κB is translocated into the nucleus also by activation with low-molecular-weight G proteins Rac1 and Cdc42 or MEKK1 and induces gene expression. An activated Rac1, Cdc42 or MEKK1 expression plasmid was introduced together with the NF-κB reporter gene into cells and the effect of cPrG-HCl on NF-κB activation was measured by luciferase assay (FIG. 4A and FIG. 4B).
On the technique in general: A reporter such as luciferase makes a cellular process visible.

Data set [3] has as its target T1, IKK (Homo sapiens, UniProt O14920+O15111).
T1 construct: host or cells: HeLa cells (inferred)
In words: IKK activation in stimulated cells (immune complex kinase assay). The format is cell-based. The following applies: FIG. 2D. The procedure: as §1
In order to find out the mechanism of NF-κB suppression by cPrG-HCl, the effect on the signal transduction system, which functions upstream of NF-κB, was analyzed. First, the effect of cPrG-HCl on IKK activity was examined. […] Next, the effect of cPrG-HCl on phosphorylation and degradation of IκB was analyzed by Western blotting using anti-IκB antibody (FIG. 2E). In FIG. 2E, black arrows indicate IκBα and white arrows indicate phosphorylated IκBα. […] Namely, cPrG-HCl suppressed NF-κB activation without suppressing the steps up to IκB degradation. Accordingly, nuclear translocation of NF-κB was analyzed by Western blotting using p65 and p50 which are components of NF-κB (FIG. 2F). […] Further, the state of NF-κB activation in the nucleus was analyzed by EMSA (electrophoretic mobility shift assay) (FIG. 2G). In FIG. 2G, “n. s.” means nonspecific band.

Data set [4] has as its system AP-1. The following applies: earlier abstract of the inventors (Kamata et al., 2000); cited from earlier work.

Consider one compound from US20040048791A1, “Method for treating neoplastic cells using cycloprodigiosin or salt thereof” (priority 2002, published 2004).

Entries after “also recorded” stand apart in the source; their conditions may differ. Counter-ions that a name gives are not always drawn.

T1 sequence (O15111 whole entry): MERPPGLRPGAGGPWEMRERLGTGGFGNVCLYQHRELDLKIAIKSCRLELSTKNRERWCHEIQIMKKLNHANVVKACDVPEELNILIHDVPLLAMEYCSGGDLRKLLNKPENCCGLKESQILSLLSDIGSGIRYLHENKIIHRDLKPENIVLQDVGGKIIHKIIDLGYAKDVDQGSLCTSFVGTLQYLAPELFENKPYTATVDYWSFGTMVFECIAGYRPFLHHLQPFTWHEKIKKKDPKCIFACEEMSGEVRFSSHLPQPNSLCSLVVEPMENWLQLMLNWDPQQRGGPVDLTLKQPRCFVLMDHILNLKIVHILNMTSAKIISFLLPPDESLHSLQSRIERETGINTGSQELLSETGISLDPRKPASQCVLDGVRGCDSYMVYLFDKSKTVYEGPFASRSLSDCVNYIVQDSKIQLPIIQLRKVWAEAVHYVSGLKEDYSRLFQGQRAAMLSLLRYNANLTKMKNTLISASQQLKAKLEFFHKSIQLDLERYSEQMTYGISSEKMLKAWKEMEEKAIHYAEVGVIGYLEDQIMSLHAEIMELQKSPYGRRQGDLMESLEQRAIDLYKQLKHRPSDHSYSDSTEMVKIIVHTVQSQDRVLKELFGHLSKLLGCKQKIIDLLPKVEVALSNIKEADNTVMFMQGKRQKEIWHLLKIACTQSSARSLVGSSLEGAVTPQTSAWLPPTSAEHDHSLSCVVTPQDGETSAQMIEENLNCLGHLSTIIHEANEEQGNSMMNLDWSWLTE
T1 sequence (O14920 whole entry): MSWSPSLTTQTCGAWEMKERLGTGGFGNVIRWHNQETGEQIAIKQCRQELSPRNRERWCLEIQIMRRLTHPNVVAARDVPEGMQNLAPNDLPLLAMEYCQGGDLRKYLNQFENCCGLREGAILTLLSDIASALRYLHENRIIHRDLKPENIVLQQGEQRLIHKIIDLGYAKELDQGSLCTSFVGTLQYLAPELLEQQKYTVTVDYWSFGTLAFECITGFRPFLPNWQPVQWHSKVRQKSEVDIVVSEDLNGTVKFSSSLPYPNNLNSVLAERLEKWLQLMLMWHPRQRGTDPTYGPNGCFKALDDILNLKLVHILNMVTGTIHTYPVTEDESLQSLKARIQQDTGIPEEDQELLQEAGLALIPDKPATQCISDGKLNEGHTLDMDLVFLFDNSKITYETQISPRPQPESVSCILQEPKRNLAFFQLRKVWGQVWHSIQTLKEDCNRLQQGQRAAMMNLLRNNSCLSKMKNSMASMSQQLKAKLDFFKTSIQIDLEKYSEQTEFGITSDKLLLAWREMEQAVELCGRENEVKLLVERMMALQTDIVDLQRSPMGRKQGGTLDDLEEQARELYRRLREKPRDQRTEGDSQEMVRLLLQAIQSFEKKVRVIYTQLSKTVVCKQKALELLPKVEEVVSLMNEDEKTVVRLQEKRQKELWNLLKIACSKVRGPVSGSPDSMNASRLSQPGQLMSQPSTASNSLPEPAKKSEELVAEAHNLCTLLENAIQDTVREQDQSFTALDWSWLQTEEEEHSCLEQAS
T1 sequence (Q9Y6K9 whole entry partner): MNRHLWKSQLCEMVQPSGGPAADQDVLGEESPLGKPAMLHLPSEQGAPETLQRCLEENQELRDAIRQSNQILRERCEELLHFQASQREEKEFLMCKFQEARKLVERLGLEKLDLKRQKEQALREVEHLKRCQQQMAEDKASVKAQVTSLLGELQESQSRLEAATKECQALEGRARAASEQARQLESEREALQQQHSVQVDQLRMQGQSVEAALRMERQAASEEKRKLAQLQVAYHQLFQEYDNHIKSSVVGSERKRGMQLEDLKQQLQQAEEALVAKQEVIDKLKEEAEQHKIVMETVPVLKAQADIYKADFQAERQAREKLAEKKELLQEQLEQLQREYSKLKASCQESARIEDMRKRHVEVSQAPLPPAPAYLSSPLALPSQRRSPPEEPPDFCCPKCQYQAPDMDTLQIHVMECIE

In the case of `COC1=CC(c2ccc[nH]2)=N/C1=C\c1[nH]c(C)c2c1C(C)CCC2` (stereo not shown) [cPrG-HCl, Cycloprodigiosin hydrochloride], the cell viability result in data set [1] (cPrG-HCl present upon TNFα stimulation) is given as “about 65%”. Moreover, the cell viability entry in data set [1] (cPrG-HCl treatment alone) was “slightly decreased”. Moreover, in data set [2], the “NF-κB-dependent gene expression induced by IKKα” value is “Suppresses”, the “NF-κB-dependent gene expression induced by IKKβ” value is reported as “Suppresses” and the “NF-κB-dependent gene expression induced by p65” value was “Suppresses”. Moreover, the “PMA-induced activation of NF-κB” value in data set [2] (FIG. 3A) is given as “Suppresses”. The “TNFα-induced NF-κB activation (gene expression induction, luciferase)” value in data set [2] (HeLa cells, FIG. 2A, 2C, hydrochloride) is given as “inhibited; also recorded: concentration-dependently suppressed”. For the same compound, the “NF-κB activation induced by MEKK1” value in data set [2] (MEKK1 expression plasmid with reporter gene, FIG. 4) is “suppressed”. The “NF-κB activation induced by Cdc42” value in data set [2] (activated Cdc42 expression plasmid with reporter gene, FIG. 4) is reported as “suppressed”. Besides, the “NF-κB activation induced by Rac1” value in data set [2] (activated Rac1 expression plasmid with reporter gene, FIG. 4) was “suppressed”. Moreover, the “TNFα-induced NF-κB activation” value in data set [2] (in the presence of imidazole, FIG. 2C) is given as “suppressed”. For the same compound, the “TNFα-induced IKK activation” value in data set [3] is “did not suppressed”. The “gene expression induction by AP-1” value in data set [4] was “significantly suppressed”.
